This note sets out measurements from patent US20250049927A1, “MODIFIED OLIGONUCLEOTIDE-DRUG CONJUGATE AND USE THEREOF” (INTEROLIGO CORPORATION., priority 2021, published 2025).

Non-standard residues stand in square brackets, D forms with d. Residues, ends and D or L forms follow the SMILES beside them. *: point of attachment. Dolaproine = CO[C@@H]([C@@H]1CCCN1)[C@@H](C)C(=O)O; Dil = CC[C@H](C)[C@H](NC)[C@@H](CC(=O)O)OC; X1 = C[C@@H](N*)[C@@H](O)c1ccccc1; NMeV = CN[C@H](C(=O)O)C(C)C

Data set [1] has as its system BxPC-3-Luc orthotopic pancreatic cancer. Kind of data set: Orthotopic pancreatic cancer animal model, patch-type collagen drug delivery system inserted at tumor site. The format is in vivo, BALB/c-nude male mice. The following applies: 2.0 mg-loading collagen patch; for IVIS whole body image: change in luminescence / dead mice: inserted once; for IVIS whole body image: change in luminescence: 4 weeks; for dead mice: 28 days. The source says:
To deliver the modified oligonucleotide-drug conjugates to an animal model, high-purity collagen (COLTRIX® Tendoregen, Ubiosis Co., Ltd.) dispersion (1.0%) and samples (e.g., modified oligonucleotide-drug conjugates, gemcitabine, etc.) to be tested were mixed, poured into a circular silicone mold having a diameter of 1 cm, and lyophilized to prepare a “patch-type collagen drug delivery system” in which the samples were loaded in the collagen. Amounts of the samples loaded per patch-type collagen drug delivery system are as shown in Table 3 below (in Table 3, SEQ ID NO: 16 is 5′-(Gem)(Gem)[TGG]4[TTG][TGG]5-3′, wherein Gem-Gemcitabine).
Specifically, each of sample (gemcitabine, IO101L (SEQ ID NO: 16) and modified oligonucleotide-drug conjugates (Example 5 and Example 9) to be tested was added to the high-purity collagen, and then uniformly mixed using a multi-mixer (SLRM-3, MYLAB) at 4° C. for 1 hour. Thereafter, a predetermined amount of the collagen-drug mixture was dispensed into a cylindrical silicone mold having a diameter of 1 cm and the collagen-drug mixture was primary frozen at −20° C. for 4 hours or more. After the first freezing was completed, the sample was separated from the cylindrical silicone mold and transferred to a sterile dish or plate, and then secondary frozen at −80° C. for 2 hours or more. After preliminary freezing so that the cold trap temperature of a lyophilizer was-80° C., the mixture was placed in the lyophilizer and lyophilized for more than 16 hours. The lyophilized mixture was compressed in the form of a patch using an acrylic plate, then was put into an aluminum pouch and sealed. The packaged patch-type collagen drug delivery system was refrigerated at 4° C.
The frozen cancer cell line (BxPC-3-Luc) (Asan Institute for Life Sciences) was thawed, and then cultured in an RPMI1640 medium (Biowest, Cat #. L0498-100) in which 10% fetal bovine serum (Biowest, Cat #. S1480) and 1% antibiotic (Gibco, Cat #. 15240062) were supplied at 37° C. under 5% CO2 condition. The thawed cells were cultured for one week to confirm that there were no problems with the shape, survival rate, and doubling time.
Cancer cells having a cell survival rate of 95% or more were prepared in order to transplant them into mice. The cells were harvested using trypsin, and prepared so as to transplant them into 5×10^5 cells/25 μl/mouse by being turbid in RPMI 1640 media. 6-week old BALB/c-nude male mice stabilized for 1 week (purchased from Jabio, Korea) were subjected to abdominal anesthesia, and the pancreas was taken out by dissecting the abdominal region of each anesthetized mouse and cells of 5×10^5 cells/25 μl were transplanted. After 2 weeks, tumor formation was confirmed through luciferase imaging. […] The patch-type collagen drug delivery system prepared in the above (1) was inserted (intra-abdominal cavity insertion using surgery) into the tumor site of each mouse in the respective groups. All animal experiments included in the present test were performed according to the Institutional Animal Care and Use Committee (IACUC) of the Asan Institute for Life Sciences [2022-14-058].
After inserting the patch-type collagen drug delivery system, changes in the tumor size were observed using IVIS imaging equipment (Xenogen IVIS spectrum system; Caliper Life Science, Inc., Hopkinton, MA) at an interval of 3 times a week for 4 weeks to check the body weight. […]

The nature of data set [2]: in vivo. The following applies: male, Sprague-Dawley, rat, iv, 2 mg/kg. As to the method: Specifically, Sprague-Dawley male rats (8 weeks old, purchased from Youngbio) were acclimatized for 1 week in the animal room of the Catholic University Songsim Campus, and then pharmacokinetic experiments were performed. Rats were induced with isoflurane, an inhalation anesthetic, and PE50 (polyethylene tubing, Clay Adams, Becton Dickinson, NJ, USA) was inserted into the carotid (for blood collection) and jugular vein (for drug administration), followed by suturing with suture, and then end portions thereof were fixed to the back of the neck. During the surgery, anesthesia was maintained using ether, and about 0.5 mL of physiological saline solution containing heparin (20 units/mL) was injected to prevent blood from coagulating in the cannula. After completing the surgery, each rat was placed in a metabolic cage and allowed to fully recover from the anesthetic (for 4-5 hours). Then, the rats were divided into three groups of a group administered with Example 9 (IO176) alone (n=6), and a group administered with MMAE alone (n=7), and a group administered with gemcitabine alone (n=6), and each sample (Example 9, MMAE alone, gemcitabine alone) was administered into the rats. All of Example 9, MMAE and gemcitabine were dissolved in physiological saline at 2 mL per kg of body weight and administered into the jugular vein at doses of 40 mg/kg, 4 mg/kg and 2 mg/kg, respectively. When collecting blood, in order to prevent gemcitabine in 0.2 mL of blood from being converted into metabolites by cytidine deaminase, a light-shielding Eppendorf tube was prepared in which 2 μL of a solution containing tetrahydrouridine (hereinafter referred to as THU), a cytidine deaminase inhibitor, dissolved in distilled water at a concentration of 10 mg/mL was added in advance. […] Immediately after completing the blood collection, the plasma that had been stored in an ice-bath was quickly centrifuged at 4° C., and 100 μL of the plasma was dispensed into the light-shielding Eppendorf tube. The dispensed plasma was quickly stored in an ice-bath and maintained at −80° C. until LC-MS/MS analysis was performed. After collection of blood from the carotid, the rats were euthanized in a CO2 gas chamber.
• Analysis equipment: Agilent 1290 series HPLC, Qtrap 5500 LC-MS/MS • Detector: Tandem mass spectrometer (triple quadrouple type) • Ion source: Electrospray ionization (positive ion mode) • Desolvation temperature: 500° C. • Nebulizing gas: Nitrogen, Collision gas: Nitrogen • Quantitation: MRM (multiple reaction monitoring) mode • Stationary phase: Hypersil gold C18 column (2.1×100 mm, 1.9 μm, Thermo) Fisher Scientific Inc., Boston, USA) • Stationary phase temperature: 40° C. • Mobile phase: Distilled water (A) and acetonitrile (B) respectively containing 0.1% formic acid (95:5, v/v) (see [Table below) • Flow rate: 0.22 mL/min • Mass parameters: See [Table 8] below (CE: Collision energy)
Each of gemcitabine and dFdU standard product was dissolved in distilled water to prepare 400 μg/mL and 700 μg/mL of storage solutions and store them frozen. Then, the storage solutions were diluted with tertiary distilled water to prepare working solutions so that the concentrations were 0.200, 0.400, 0.800, 2.00, 10.0 and 40.0 μg/mL, respectively, followed by storing them in a refrigerator. 5′-Deoxy-5-fluorocytidine, an internal standard (IS), was dissolved in acetonitrile to prepare 50 ng/mL of working solution. The working solution of gemcitabine and dFdU was added to rat blank plasma containing THU to prepare standard plasma samples so that the plasma concentrations of gemcitabine and dFdU were 10, 20, 40, 100, 500 and 2000 ng/mL, respectively.
150 μL of 5′-Deoxy-5-fluorocytidine (50 ng/mL), the internal standard dissolved in acetonitrile, was added to 20 μL of rat plasma, and vortexed for 10 minutes, followed by centrifuging at 14,000 rpm at 4° C. for 5 minutes.

The subject of data set [3] is BxPC-3 pancreatic cancer cell lines. Kind of data set: Pancreatic cancer cell growth inhibition, WST assay. The format is cell-based. The following applies: BxPC-3, 72 hours treatment, absorbance 450 nm. The procedure: The in vitro anticancer efficacy of the modified oligonucleotide-drug conjugates was verified using pancreatic cancer cell lines. Pancreatic cancer cell lines (BxPC-3) were treated with the above-described examples and comparative examples at concentrations of 0, 0.01, 0.1, 1, 10, 100, 500 and 1000 μM, and the specific IC50 measurement method and measurement results are as follows.
All cell lines were cultured in a 5% CO2 incubator at 37° C. The BxPC-3 pancreatic cancer cell lines were cultured using a medium containing 10% FBS and 1% antibiotics put into ATCC modified RPMI-1640 (Thermo Scientific, USA). The medium was replaced once every 2-3 days, and passage-cultured at a time when about 70-90% of a culture dish was filled with the cells. First, the cells were washed with PBS, then 0.05% Trypsin-EDTA was added and cultured at 37° C. for 2 minutes, and then a new medium was added to inactivate trypsin. The cells were separated from trypsin and medium using a centrifuge, then another new medium was added and passaged at a ratio of 1:4, followed by culturing the same. All cells were periodically checked for contamination by mycoplasma using a kit (Intron, Korea), and in vitro efficacy evaluation experiments were conducted using only cells in which contamination was not detected.
Using WST reagent (Dongin LS, Korea), an inhibitory effect on pancreatic cancer cell growth by drug treatment was confirmed and IC50 was measured. An orange coloring substance called formazan is produced in WST by mitochondrial dehydrogenase within cells, which is effective only in living cells. The specific test method is as follows.
The cells cultured by the above-described method were dispensed by 2×10^4 into each well of a 96-well culture vessel and cultured for 24 hours. The medium of the cells attached to the culture vessel was replaced with an ATCC modified RPMI-1640 medium containing 5% FBS, and samples of the above-described modified oligonucleotide-drug conjugates (Examples 1-7 and 9-12, and Comparative Example 1-7, respectively) were treated at concentrations of 0, 0.01, 0.1, 1, 10, 100, 500 and 1000 μM. After 72 hours, 10 μl of WST reagent was added to each well and reacted for 2 hours. The produced formazan was measured with an absorbance at 450 nm using a Glomax plate meter (Promega, USA), and IC50 was evaluated according to the protocol in the device. IC50 evaluation results and graphs illustrating the same are shown in Table 2 below and FIGS. 19 to 27 (in Table 2, M=Gemcitabine, and N=5-FdU).

Data set [4] deals with Sprague-Dawley male rats. As to the kind of experiment: Death of rats after intravenous administration in the pharmacokinetic study. The format is in vivo. The following applies: MMAE 4 mg/kg intravenous.
Procedure: Specifically, Sprague-Dawley male rats (8 weeks old, purchased from Youngbio) were acclimatized for 1 week in the animal room of the Catholic University Songsim Campus, and then pharmacokinetic experiments were performed. Rats were induced with isoflurane, an inhalation anesthetic, and PE50 (polyethylene tubing, Clay Adams, Becton Dickinson, NJ, USA) was inserted into the carotid (for blood collection) and jugular vein (for drug administration), followed by suturing with suture, and then end portions thereof were fixed to the back of the neck. During the surgery, anesthesia was maintained using ether, and about 0.5 mL of physiological saline solution containing heparin (20 units/mL) was injected to prevent blood from coagulating in the cannula. After completing the surgery, each rat was placed in a metabolic cage and allowed to fully recover from the anesthetic (for 4-5 hours). […] All of Example 9, MMAE and gemcitabine were dissolved in physiological saline at 2 mL per kg of body weight and administered into the jugular vein at doses of 40 mg/kg, 4 mg/kg and 2 mg/kg, respectively. […]
Data set [5] is described as follows: Pharmacokinetic evaluation in rats: plasma MMAE by LC-MS/MS. The following applies: rat, MMAE 4 mg/kg alone intravenous. The data set is classed as in vivo, Sprague-Dawley male rats. The procedure: After pretreating samples by protein precipitation, plasma concentration of MMAE was analyzed using liquid chromatography-tandem mass spectrometry (hereinafter referred to as LC-MS/MS) established in the Pharmacology/Pharmacokinetics Laboratory of the Catholic University College of Pharmacy. All analysis processes were conducted under light-shielding conditions.
[…] standard products were dissolved in acetonitrile to prepare a 1 mg/mL of storage solution and store it frozen.

Take “IO101L: SEQ ID NO: 16, 5′-(Gem)(Gem)[TGG]4[TTG][TGG]5-3′, Gem=Gemcitabine (DNA NNTGGTGGTGGTGGTTGTGGTGGTGGTGGTGG; two 5' gemcitabine nucleotides; modified_base 1 OTHER; gemcitabine; modified_base 2 OTHER)”: in data set [1], the “IVIS whole body image: change in luminescence” value is given as “luminescence was gradually increased over time” and the dead mice entry is reported as “there were dead mice”.
With `Nc1ccn([C@@H]2O[C@H](CO)[C@@H](O)C2(F)F)c(=O)n1` [Gemcitabine, 2′,2′-difluoro-2′-deoxycytidine], the Vd in data set [2] (in vivo) is 2.73 ± 1.22 L/kg. In data set [2] (plasma), this compound gave an AUC(0-inf) of 7500 ng·h/mL, an AUC(0-t) of 7300 ng·h/mL, an MRT of 5.7 h and a clearance of 4.77 ± 1.43 mL/min/kg. In addition, the half-life in data set [2] (plasma) is 6.8 ± 2.78 h.
“Example 5 (GGTGGTGGTGGNNGNGGTGGTGGTGG; paclitaxel via acrylamide-C6-NH-succinic acid linker on U; modified_base 13 OTHER; deoxyuridine(dU); modified_base 12 OTHER; gemcitabine; modified_base 15 OTHER)”: in data set [1], the “effect of inhibiting tumor (IVIS images, tumor size and weight)” value was “excellent effect of inhibiting tumor appeared”; the “IVIS whole body image: change in luminescence” value is “changes in the fluorescence were decreased”; the dead mice entry is on record as “no dead mouse was observed”. Besides, the IC50 in data set [3] is 100 nM.
Turning to `CC[C@H](C)[C@@H]([C@@H](CC(=O)N1CCC[C@H]1[C@H](OC)[C@@H](C)C(=O)N[C@H](C)[C@@H](O)c1ccccc1)OC)N(C)C(=O)[C@@H](NC(=O)[C@@H](NC)C(C)C)C(C)C` [MMAE, Monomethyl auristatin E] (H-[NMeV]V[Dil][Dolaproine]-X1), in data set [4], the “death of tested rats” value was “all tested 7 rats were died”. Also, in data set [5], the “AUC of MMAE up to 120 minutes higher than Example 9 (IO176) 40 mg/kg group” value was “about 9.70 times” and the “plasma concentration of MMAE at 1 minute after administration” value came out at 29640 ± 7190 ng/mL. In addition, the “AUCt of MMAE” value in data set [5] (to final quantification time) turned out to be 128 ± 16.1 µg·min/mL. In addition, the “AUC0-120 of MMAE” value in data set [5] (up to 120 minutes) worked out at 71.7 ± 9.61 µg·min/mL.
